# Results: US8003634B2, “Analogs of benzoquinone-containing ansamycins and methods of use thereof” (Infinity Pharmaceuticals, Inc., priority 2003, dated 2011)
# pEC50, pIC50: −log10 of the molar value. Structures can show the parent of a compound that is named as a salt. Where two headings read alike, the source gives them in different places.
# Key:
# SKOV-3 cells = assay: Ovarian carcinoma model, SKOV-3 xenograft; assay type: in vivo; conditions: SKOV-3 s.c. in female nu/nu athymic mice; 100 mg/kg IV twice weekly; after 88 days
# Method: A study was performed in the SKOV-3 ovarian mouse xenograft model to assess the ability of the test compound to reduce subcutaneous tumor burden. In this study, female nu/nu athymic mice were implanted subcutaneously with SKOV-3 cells (1×10^7 cells). When the average tumor size reached 100 mm^3, animals were randomly assigned to treatment groups (N=10-15/group) to receive either vehicle, the test compound at 100 mg/kg (300 mg/m^2) twice weekly. The test article or vehicle was administered intravenously (IV) via the tail vein in a volume of 0.1 mL over approximately 10 seconds (sec). The animals were sacrificed after 88 days and tumor volumes compared.
# (§1) The results from the biological activity analysis of the hydroquinones of the invention are presented below. All values are expressed as the mean±SEM. Data analysis consisted of a one way analysis of variance and if appropriate followed by Dunnets test to assess differences between vehicle and treatment groups. Differences are considered significant at p<0.05.
# [1] = system: MDA-MB-468 breast carcinoma; assay: Breast carcinoma model, subcutaneous MDA-MB-468 tumors; assay type: in vivo; conditions: MDA-MB-468 s.c. in female nu/nu athymic mice; 100 mg/kg IV twice weekly; after 120 days
# Method: A study was performed in the MDA-MB-468 breast carcinoma model to assess the ability of the test compound to reduce subcutaneous tumor burden. In this study, female nu/nu athymic mice were implanted subcutaneously with MDA-MB-468 cells (1×10^7 cells). When the average tumor size reached 100 mm^3, animals were randomly assigned (N=10-15/group) to one of the following treatment groups; vehicle or the test compound at 100 mg/kg (300 mg/m^2) twice weekly every week. The test article or vehicle was administered intravenously (IV) via the tail vein in a volume of 0.2 mL over approximately 20 seconds (sec). The animals were sacrificed after 120 days and tumor volumes compared.
# as §1
# [2] = system: human multiple myeloma cell line RPMI-8226; assay: Multiple myeloma model, subcutaneous RPMI-8226 tumors; assay type: in vivo; conditions: RPMI-8226 s.c. in male SCID/NOD mice; 100 mg/kg IV three consecutive days per week; after 45 days
# Method: The effects of the test compound were studied in a human multiple myeloma cell line RPMI-8226 in male SCID/NOD mice. In this study, male mice were implanted subcutaneously with RPMI-8226 cells (1×10^7 cells). When the average tumor size reached 100 mm^3, animals were randomly assigned to treatment groups (N=10-15/group) to receive either vehicle (50 mM citrate, 50 mM ascorbate, 2.4 mM EDTA adjusted to pH 3.0) or 100 mg/kg (300 mg/m^2) of the test compound three consecutive days per week. The test article or vehicle was administered intravenously (IV) via the tail vein in a volume of 0.2 mL over approximately 20 seconds (sec). The animals were sacrificed after 45 days and tumor volumes compared.
# as §1
# LnCAP cells = assay: LnCAP cell cytotoxicity, Alamar blue; assay type: cell-based; conditions: Homo sapiens, 96 h, 4 days
# Method: (§2) The human cancer cell lines SKBr3, MV4-11, K562, SK-MEL-28, LnCAP, and MDA-MB-468 were obtained from the American Type Culture Collection (Manassas, Va.). The multiple myeloma RPMI-8226 and MM1.s cells were from Dr. Teru Hideshima (Jerome Lipper Multiple Myeloma Center, Dana Farber Cancer Institute, Boston, Mass., USA.). All the cell lines were determined to be mycoplasma-free. The cells were maintained in RPMI-1640 medium supplemented with 10% heat-inactivated FBS, 50 units/mL streptomycin and 50 units/mL penicillin, and incubated at 37° C. in 5% CO2. Adherent cells were dissociated with 0.05% trypsin and 0.02% EDTA in phosphate buffer saline (PBS) without calcium and magnesium prior to plating for experimentation.
# Increasing concentrations of the test compound added to LnCAP cells in culture for 4 days and the viability of the cells was measured using Alamar blue.
# SKBr3 cells = assay: SKBr3 cell cytotoxicity, Alamar blue; assay type: cell-based; conditions: Homo sapiens, SK-BR-3, 72 h
# Method: as §2
# SKBr3 Cells were incubated for 72 h with increasing concentrations of the test compound. For the viability studies Alamar blue was added and wells read after a 6 h incubation.
# MDA-MB-468 cells = assay: MDA-MB-468 cell cytotoxicity, Alamar blue; assay type: cell-based; conditions: Homo sapiens, 72 h
# Method: as §2
# MDA-MB-468 Cells were incubated for 72 h with increasing concentrations of the test compound. For the viability studies Alamar blue was added and wells read after 6 h of incubation.
# K562 cells = assay: K562 cell cytotoxicity, Alamar blue; assay type: cell-based; conditions: Homo sapiens
# Method: as §2
# K562 cells were incubated with increasing concentrations of the test compound. Cell viability was assessed using an Alamar blue read out
# MV4-11 cells = assay: MV4-11 cell cytotoxicity, Alamar blue; assay type: cell-based; conditions: Homo sapiens, 72 h, 3 days
# Method: as §2
# MV4-11 cells were incubated for 3 days with increasing concentrations of the test compound. Cell viability was assessed using an Alamar blue read out.
# SK-MEL-28 cells = assay: SK-MEL-28 cell cytotoxicity, Alamar blue; assay type: cell-based; conditions: Homo sapiens, SK-MEL-28 cells, 2, 3 or 4 days
# Method: as §2
# Increasing concentrations of the test compound was added to SK-MEL-28 cells in culture for 2, 3 or 4 days and the viability of the cells was measured using Alamar blue.
# Lewis lung cells = assay: Murine Lewis lung model; assay type: in vivo; conditions: Lewis lung cells s.c. in C57B1/6 mice; 75 mg/m^2 MWF for 3 cycles, tail vein; after 25 days
# Method: A study was performed in the mouse Lewis lung model to assess the ability of the compounds of the present invention to reduce both subcutaneous tumor burden as well as the incidence of lung metastasis. In this study C57B1/6 mice were implanted subcutaneously with Lewis lung cells (1×10^6 cells). When the average tumor size reached 71 mm^3 animals (N=10-15/group) were randomly assigned to the following treatment groups: vehicle and compound 15 75 mg/m^2 Monday, Wednesday and Friday (MWF) for 3 cycles. Each cycle consisted of […] of treatment. The test article or vehicle was administered via the tail vein in a volume of 0.2 mL over approximately 30 sec. The animals were sacrificed after 25 days and tumor volumes were compared.
# as §1
# physchem = conditions: water / aqueous solutions
# PC-3 cells = assay: Prostate carcinoma, PC-3 xenograft models; assay type: in vivo; conditions: PC-3 s.c. in male nu/nu athymic mice; single agent 100 mg/kg twice weekly; after 64 days
# Method: Two studies were performed in mouse PC-3 prostate xenograft models to assess the ability of the test compound to reduce subcutaneous tumor burden as a single agent or in combination with current standard of care. In both studies male nu/nu athymic mice were implanted subcutaneously with PC-3 cells (1×10^7 cells). When the average tumor size reached 100 mm^3 animals were randomly assigned to treatment groups (N=10-15/group). In the first study mice received either vehicle, the test compound 100 mg/kg (300 mg/m^2) twice weekly. The test article or vehicle was administered via the tail vein in a volume of 0.2 mL over approximately 20 sec. The animals were sacrificed after 64 days and tumor volumes compared.
# A second study was performed in this model to assess the test compound in combination with the standard of care, Taxotere. […] The animals were sacrificed after 64 days and tumor volumes compared.
# MM1.s cells = assay: MM1.s cell cytotoxicity, Alamar Blue assay; assay type: cell-based; conditions: Homo sapiens, 72 h
# Method: as §2
# Alamar Blue assay. MM1.s cells (50,000/well) were incubated for 72 h with increasing concentrations of the test compound. Alamar blue was added to the wells and fluorescence measured 4 h after incubation at 37° C.
# [3] = system: Native human Hsp90 protein isolated from HeLa cells; assay: Competitive binding to HSP90, fluorescence polarization assay with BODIPY-GDM; conditions: competitive binding experiment
# Method: A 20 nM BODIPY-GDM solution was freshly prepared in FP binding assay buffer [20 mM HEPES-KOH, pH 7.3, 1.0 mM EDTA, 100 mM potassium chloride, 5.0 mM magnesium chloride, 0.01% NP-40, 0.1 mg/mL Bovine γ-globulin (BGG), 1.0 mM DTT, and Complete™ protease inhibitor] from a 20 μM stock solution in DMSO. […] After 3-h incubation at 30° C., fluorescence anisotropy was measured on an EnVision 2100 multilabel plate reader equipped with a 485 nm excitation filter and a 535 nm P/S emission filter (Perkin Elmer, Boston, Mass.).
# A dilution series for each compound was freshly prepared in FP binding assay buffer from 20 μM to 0.20 nM. […] After 3-h incubation at 30° C., fluorescence anisotropy was measured on an EnVision 2100 plate reader.
# Assays were performed under nitrogen atmosphere in a LabMaster glove box (M. Braun, Stratham, N H). […] After 3-h incubation at 30° C., the microplate was brought out of the glove box, and fluorescence anisotropy was immediately measured on an EnVision 2100 plate reader.
# Binding of BODIPY-GDM to Hsp90 results in simultaneous increases in fluorescence anisotropy (FA) and intensity (FI). […]
# [formula] with Hill coefficient forced to 1 for simplicity. From the values of FImax (bound ligand) and FImin (free ligand), a Q factor is calculated by: […]
# [formula] and FA being expressed as the weighted sum of contributions from the free and bound forms of ligand: […]
# [4] = system: NCI 60 tumor cell line panel; conditions: Developmental Therapeutics Program Website, read-out: mean IC50 over all cell lines in the panel; cited from earlier work
# [5] = water / aqueous solutions
SMILES,% Tumor Growth Compared to Vehicle (SKOV-3 cells),% Tumor Growth Compared to Vehicle [1],% Tumor Growth Compared to Vehicle [2],pEC50 (LnCAP cells),pEC50 (SKBr3 cells),pEC50 (MDA-MB-468 cells),pEC50 (K562 cells),pEC50 (MV4-11 cells),pEC50 (SK-MEL-28 cells),% Tumor Growth Compared to Vehicle (Lewis lung cells),solubility (physchem),% Tumor Growth Compared to Vehicle (PC-3 cells),pEC50 (MM1.s cells),HSP90 inhibition (summary in words) [3],pIC50 [4],solubility [5]
"C=CCNc1c(O)cc2c(O)c1C[C@@H](C)C[C@H](OC)[C@H](O)[C@@H](C)/C=C(\C)[C@H](OC(N)=O)[C@@H](OC)/C=C\C=C(/C)C(=O)N2 [Compound 15, HCl Salt of the Hydroquinone of 17-AAG]",59%,76%,71%,7.14,7.49,6.47,7.54,7.60,6.70,60%,> 200 mg/mL,50%,6.51,active HSP90 inhibitors,,
"C=CCNC1=C2C[C@@H](C)C[C@H](OC)[C@H](O)[C@@H](C)/C=C(\C)[C@H](OC(N)=O)[C@@H](OC)/C=C\C=C(/C)C(=O)NC(=CC1=O)C2=O [Compound 17-AAG, 17-allylamino-17-demethoxygeldanamycin, reference compound]",,,,,7.47,6.45,7.30,7.42,,,,,6.51,,6.92,
"C=CCNc1c(O)cc2c(O)c1C[C@@H](C)C[C@H](OC)[C@H](O)[C@@H](C)/C=C(\C)[C@H](OC(N)=O)[C@@H](OC)/C=C\C=C(/C)C(=O)N2 [hydroquinone of 17-AAG, 17-allylamino-18,21-dihydro-17-demethoxygeldanamycin]",,,,,,,,,,,,,,,,1 to 3 mg/mL
